Data reported in US20230321124A1, “ROR gamma t Inhibitors and Topical Uses Thereof” (DERMIRA, INC., priority 2020, published 2023).

System: IL-17A protein
Test: skin Resident Immune Cell Assay (sRICA), Th17 model, human skin biopsies
Assay type: cell-based
Conditions: Example 2, FIG. 1; 10 ul topical, overnight; media harvested 48 hours after activation; N=6
Description: A skin Resident Immune Cell Assay (sRICA) was used to test Compounds 1, 2 and 3 in Formulations as identified in Example 1 for reduction of IL-17A protein upregulation in the Th17 sRICA model. In this model, human surgical skin waste was cultured in a transwell system, with the dermis in contact with cell culture media and the stratum corneum exposed to air. To perform the assay, each human skin sample was defatted and dermatomed to 750 μm. Next, 8 mm punch biopsies were obtained and placed in a membrane transwell. The biopsies were prepared with a barrier ring to contain the formulation and prevent leakage of the formulation. […]
10 ul of the test solvent system was applied to topically prepared sRICA samples and allowed to penetrate the skin overnight. […] An unpaired, two-tailed students T-test was used to determined statistical significance between Th17 treated skin and treatment groups. The performance of the 3 RORγt inhibitors in Formulations representative of creams (Formulations 3-7), aqueous gels (Formulation 8), non-aqueous gels (Formulations 9-10), and ointments (Formulation 11) were evaluated.
All formulations of containing Compound 1 or Compound 2 were created at 80% saturation, except for all non-aqueous gels (NAG) in which saturation has not yet been determined (>12%) and were arbitrarily formulated at 1% or 5% (see Formulation 10 (1%) and Formulation 10 (5%) in Tables 6 and 7). […]

C[C@H]1C[C@H]2[C@@H]3CCC4=CC(=O)C=C[C@]4(C)[C@@]3(F)[C@@H](O)C[C@]2(C)[C@@]1(O)C(=O)CCl [Clobetasol]
Th17-cocktail induced IL17A protein in culture media: complete suppression
